Laboratory results taken from patent US20240140966A1, “AMORPHOUS AND CRYSTALLINE FORMS OF MCL-1 ANTAGONISTS” (AMGEN INC., priority 2022, published 2024).
Entries after “also recorded” stand apart in the source; their conditions may differ.

How the values were obtained:
Moisture sorption (DVS) = type: physicochemical; conditions: for hygroscopicity (in words): DVS up to 95% RH; for XRPD of the post-DVS material: after DVS cycle
Description: Moisture Sorption: Moisture sorption data was collected at 25° C. using a VTI vapor sorption analyzer. A sample size of approximately 4-10 mg was used in a standard platinum pan. Hygroscopicity was evaluated from 5 to 95% RH in increments of 5% RH. Data for adsorption and desorption cycles were collected. Equilibrium criteria were set at 0.001% weight change in 10 minute with a maximum equilibration time of 180 minutes.

[1] = Solid state stability assessment under accelerated conditions; type: physicochemical; conditions: for XRPD after solid state physical stability assessment: 8 weeks under stress conditions; for chemical and physical stability after 8 weeks: 25° C./60% RH (open), 40° C. (closed), 60° C. (closed), 40° C./75% RH (open)
Description: Solid state stability assessment of AMG 176 Form 1 was conducted at 25° C./60% RH (open), 40° C. (closed), 60° C. (closed), and 40° C./75% RH (open) accelerated conditions to determine the chemical and physical stability of AMG 176.
Solid state stability assessment of AMG 176 amorphous material and Form 1 was conducted at 25° C./60% RH (open), 40° C. (closed), 60° C. (closed), and 40° C./75% RH (open) accelerated conditions to determine the chemical and physical stability of AMG 176.

[2] = Dog PK studies, amorphous versus crystalline suspension; type: in vivo; conditions: AMG 176 dosed as an amorphous suspension as compared to the crystalline suspension
Excerpt: AMG 176 Form 1 has acceptable pharmaceutical and physical properties, can be scaled to kilogram quantities, and can be compounded during drug product formulating as an in situ sodium salt to achieve desired drug concentrations to enable IV delivery. AMG 176 can also be converted to amorphous material to support oral dosing, if desired, depending on the dosing range. […] While improved exposures were observed by dosing the amorphous material, the exposures would likely plateau if gram level doses are need for oral delivery.

[3] = DVS, 25° C., adsorption 5% to 95% RH

Compound	hygroscopicity (in words) (Moisture sorption (DVS))	water vapor uptake between 5% and 95% RH (Moisture sorption (DVS); [3]) [%]	XRPD of the post-DVS material (Moisture sorption (DVS))	XRPD after solid state physical stability assessment ([1]; listed as crystalline Form 1 of AMG 176)	chemical and physical stability after 8 weeks [1]	improvement of absorption [2] [×]	water vapor uptake (weight gain) between 5% and 95% RH (Moisture sorption (DVS); [3]) [wt %]	water vapor uptake (weight gain) between 5% and 95% RH (Moisture sorption (DVS); DVS, 25° C., adsorption 5% to 95% RH, listed as amorphous form of AMG 176)	weight gain at 95% RH (Moisture sorption (DVS); DVS, 95% relative humidity) [%]	weight lost upon desorption (Moisture sorption (DVS); DVS, desorption cycle, likely loss of residual DCM and/or water) [%]	XRPD of the post-DVS material (Moisture sorption (DVS); listed as amorphous form of AMG 176)	XRPD after solid state physical stability assessment [1]
CO[C@H]1/C=C/C[C@H](C)[C@@H](C)S(=O)(=O)NC(=O)c2ccc3c(c2)N(C[C@@H]2CC[C@H]21)C[C@@]1(CCCc2cc(Cl)ccc21)CO3 [AMG 176 Form 1]	low hygroscopicity; also recorded: non-hygroscopic	0.3	no form change	Form conversion was not observed	physically and chemically stable							
CO[C@H]1/C=C/C[C@H](C)[C@@H](C)S(=O)(=O)NC(=O)c2ccc3c(c2)N(C[C@@H]2CC[C@H]21)C[C@@]1(CCCc2cc(Cl)ccc21)CO3 [AMG 176, (1S,3′R,6′R,7′S,8′E,11′S,12′R)-6-chloro-7′-methoxy-11′,12′-dimethyl-3,4-dihydro-2H,15′H-spiro[naphthalene-1,22′-[20]oxa[13]thia[1,14]diazatetracyclo[14.7.2.0^3,6.O^19,24]pentacosa[8,16,18,24]tetraen]-15′-one 13′,13′-dioxide]						10						
CO[C@H]1/C=C/C[C@H](C)[C@@H](C)S(=O)(=O)NC(=O)c2ccc3c(c2)N(C[C@@H]2CC[C@H]21)C[C@@]1(CCCc2cc(Cl)ccc21)CO3 [Amorphous AMG 176]	limited hygroscopicity		consistent with amorphous material		physically and chemically stable		0.95	about 0.95 wt %	0.95	1.59	consistent with amorphous material	Crystallization not observed
